Tests used:
[1] = system: ileo-rectal anastomosed piglets; assay: ileal apparent digestibility of nitrogen, energy and amino acids in ileo-rectal anastomosed piglets; format: in vivo, Large White×Landrace×Piétrain piglets; details: for ileal apparent lysine digestibility / ileal apparent threonine digestibility: mean ± σ
Procedure: Ten Large White×Landrace×Piétrain piglets were used. The animals were obtained from the GAEC Leclerc, F-68150 Ostheim and were 60 days old at the beginning of the experiment.
Each animal was subjected to an ileo-rectal anastomosis according to the techniques described by Laplace et al. (1994). After surgery piglets were housed individually in stainless-steel metabolic cages in an animal room under controlled temperature (22° C.), humidity (50%), ventilation (1100 m3/h) and lighting (12 hours light/12 hours darkness cycle). […] Meanwhile they were fed ad libitum a vegetal based diet for piglets and had free access to tap water.
During the experimental period, piglets were fed each and alternatively the vegetal based diet supplemented or not with 0.5% benzoic acid.
An indigestible tracer, chromium oxide, was added at a concentration of 0.4% to all the diets in order to measure ileal apparent digestibility.
The experience was composed of 2 periods of 12 days each divided in 10 adaptation days and in 2 ileal content sampling days.
Each animal was fed alternatively with each diet, so that each diet was tested 10 times.
For the digestibility estimations, samples of ileal content were collected daily, during the 2 sampling days, from 8 AM to 3 PM, as soon as they were produced. Immediately after each sampling, the collected contents were weighed and frozen at −80° C. All the daily samples from the same piglet were bulked. Before analysis the samples were freeze dried and grounded to a fine powder. A total of […] samples were obtained for each diet.
The dry matter contents of the freeze-dried samples were determined after drying overnight at 105° C., 20 g of the diets and 15 g of the ileal samples, according to the standard Association of Official Analytical Chemists (AOAC) procedure (1990).
The diets and ileal samples chromium oxide levels were determined by inductively coupled plasma-atomic emission spectrometry (ICP) after mineralization at 350° C. during 20 min with oxidant reagent.
Total energy levels were determined on the freeze-dried diets and ileal contents using a calorimeter IKA C7000.
Total nitrogen concentrations were determined on the freeze-dried diets and ileal contents using a nitrogen analyzer LECO FP-428.
Total amino acids were determined after an acidic hydrolysis on the freeze-dried diets and intestinal contents. Tryptophan analysis was omitted. Cys and Met were analyzed as cysteic acid and methionine sulfone after oxidation with formic acid and hydrogen peroxide followed by an acidic hydrolysis at 110° C. with 6 N HCl. All the other amino acids were analyzed after an acidic hydrolysis at 110° C. with 6 N HCl.
Individual amino acid concentrations were measured after derivation using Waters AccQ.Fluor reagent and quantified by reversed-phase HPLC by fluorescence detection after elution on a Pico.Tag C18 column.
Correcting with the dry matter, the chromium oxide and the diet tested parameter concentrations, all the tested parameter levels of the freeze-dried ileal contents were expressed in % apparent digestibility using the following formula:
[formula] • Ci=parameter concentration (% dry matter) in the ileal content • Cd=parameter concentration (% dry matter) in the diet • Mi=chromium oxide concentration (% dry matter) in the ileal content • Md=chromium oxide concentration (% dry matter) in the diet
For each test group, statistic analysis of the data involved the calculation of the mean and standard deviation of the mean as well as an analysis of variance followed by Student's “t” test to assess the significance of group differences between group A and benzoic acid supplemented group B for a probability of 10% for the amino acids and 5% for nitrogen and energy.

[2] = system: piglets; assay: animal health status controlled daily during the feeding trial; format: in vivo, Large White×Landrace×Piétrain piglets; details: piglets fed alternately diet with or without 0.5% benzoic acid, 2 periods of 12 days
Excerpt: The animal health status was controlled daily.
At the beginning of the study all the piglets had recovered from the anesthesia and the surgery. […] All the feedings and all the sampling could be achieved.

[3] = 0.5% benzoic acid in diet vs non-supplemented diet, statistically non-significant (p<0.10)
[4] = 0.5% benzoic acid in diet vs non-supplemented diet, statistically significant (p<0.05)
[5] = 0.5% benzoic acid in diet vs non-supplemented diet, statistically significant (p<0.10)
[6] = piglets, Benzoic acid 0.5% in diet
[7] = piglets, diet supplemented with 0.5% benzoic acid, mean ± SD
[8] = piglets, diet supplemented with 0.5% benzoic acid
[9] = piglets, diet supplemented with 0.5% benzoic acid, listed as Benzoic acid

For `O=C(O)c1ccccc1` [benzoic acid], the “increase of ileal apparent sulfured amino acids digestibility compared to the control group” value [1, 3] was 2.9%, the “increase of ileal apparent threonine digestibility compared to the control group” value [1, 3] was 2.7% and the “increase of ileal apparent energy digestibility compared to the control group” value [1, 4] was 4.4%. The “increase of ileal apparent total nitrogen digestibility compared to the control group” value [1, 4] was 5.3%, the “increase of ileal apparent branched chain amino acids digestibility compared to the control group” value [1, 5] was 2.9% and the “increase of ileal apparent essential amino acids digestibility compared to the control group” value [1, 5] was 2.9%. For the same compound, the “increase of ileal apparent lysine digestibility compared to the control group” value [1, 5] was 3.5%, the “increase of ileal apparent total amino acids digestibility compared to the control group” value [1, 5] was 2.9% and the “Mean digestibility ± σ, Ala (ileal apparent)” value [1, 6] was 75.3 ± 3.7%. For the same compound, the “Mean digestibility ± σ, Arg (ileal apparent)” value [1, 6] was 87.0 ± 1.8%, the “Mean digestibility ± σ, Asp + Asn (ileal apparent)” value [1, 6] was 79.1 ± 3.2% and the “Mean digestibility ± σ, Cys (ileal apparent)” value [1, 6] was 79.7 ± 4.4%. For the same compound, the “Mean digestibility ± σ, Glu + Gln (ileal apparent)” value [1, 6] was 86.7 ± 2.1%, the “Mean digestibility ± σ, Gly (ileal apparent)” value [1, 6] was 75.1 ± 4.4% and the “Mean digestibility ± σ, His (ileal apparent)” value [1, 6] was 86.4 ± 2.5%. For the same compound, the “Mean digestibility ± σ, Hyp (ileal apparent)” value [1, 6] was 41.4 ± 13.4%, the “Mean digestibility ± σ, Ile (ileal apparent)” value [1, 6] was 81.5 ± 3.6% and the “Mean digestibility ± σ, Leu (ileal apparent)” value [1, 6] was 84.5 ± 2.4%. For the same compound, the “Mean digestibility ± σ, Met (ileal apparent)” value [1, 6] was 80.7 ± 3.5%, the “Mean digestibility ± σ, Phe (ileal apparent)” value [1, 6] was 84.5 ± 2.3% and the “Mean digestibility ± σ, Pro (ileal apparent)” value [1, 6] was 85.8 ± 2.4%. For the same compound, the “Mean digestibility ± σ, Ser (ileal apparent)” value [1, 6] was 82.6 ± 2.9%, the “Mean digestibility ± σ, Tyr (ileal apparent)” value [1, 6] was 80.8 ± 2.8% and the “Mean digestibility ± σ, Val (ileal apparent)” value [1, 6] was 79.5 ± 3.6%. For the same compound, the “ileal apparent branched chain amino acids digestibility” value [1, 7] was 82.7±2.8%, the “ileal apparent energy digestibility” value [1, 7] was 72.6±4.7% and the “ileal apparent essential amino acids digestibility” value [1, 7] was 82.7±2.6%. For the same compound, the “ileal apparent sulfured amino acids digestibility” value [1, 7] was 80.1±3.5%, the “ileal apparent total amino acids digestibility” value [1, 7] was 82.0±2.7% and the “ileal apparent total nitrogen digestibility” value [1, 7] was 77.7±3.1%. The “ileal apparent lysine digestibility” value [1, 8] was 82.3±2.8%, the “ileal apparent threonine digestibility” value [1, 8] was 78.0±3.9% and the “ileal apparent lysine digestibility” value [1, 9] was 82.3 ± 2.8%. For the same compound, the “ileal apparent threonine digestibility” value [1, 9] was 78.0 ± 3.9% and the “symptoms of illness or toxicosis” value [2] was “None of the animals showed during the experimental period, any symptoms of illness or toxicosis”.

Reference: patent US20100160438A1, “NOVEL USE OF A NUTRACEUTICAL COMPOSITION IN ANIMAL FEED” (priority 2006, published 2010)
